Laboratory results as given in patent US9434686B2, “Deacetylase inhibitors and uses thereof” (President and Fellows of Harvard College, priority 2008, dated 2016).

Legend:
[1] = test system: human multiple myeloma cells; test: Cell proliferation (Cell TiterGlo) synergy of HDAC inhibitor with bortezomib; type: cell-based; settings: two cultures of human multiple myeloma cells, bortezomib 0, 2.5 nM, 5.0 nM
Experimental: FIG. 7. […] Synergistic effects on cell proliferation were determined by varying concentrations of each HDAC inhibitor in the presence of varied concentrations of the proteasome inhibitor, bortezomib. Two cultures of human multiple myeloma cells were used for this study. Data presented are the IC50 data for the HDAC inhibitor studied (first column) in the presence of increasing concentrations of bortezomib (0, 2.5 nM, or 5.0 nM). The measurement of cell proliferation used is the Cell TiterGlo assay (Promega), which uses bioluminescence to report on ATP content in cultured cells.

HDAC6 = target: T1, HDAC6 (Homo sapiens, UniProt Q9UBN7); test: HDAC biochemical (homogeneous) assay, inhibitory constants
T1 construct: endogenous in cells
T1 sequence (Q9UBN7 1-1215): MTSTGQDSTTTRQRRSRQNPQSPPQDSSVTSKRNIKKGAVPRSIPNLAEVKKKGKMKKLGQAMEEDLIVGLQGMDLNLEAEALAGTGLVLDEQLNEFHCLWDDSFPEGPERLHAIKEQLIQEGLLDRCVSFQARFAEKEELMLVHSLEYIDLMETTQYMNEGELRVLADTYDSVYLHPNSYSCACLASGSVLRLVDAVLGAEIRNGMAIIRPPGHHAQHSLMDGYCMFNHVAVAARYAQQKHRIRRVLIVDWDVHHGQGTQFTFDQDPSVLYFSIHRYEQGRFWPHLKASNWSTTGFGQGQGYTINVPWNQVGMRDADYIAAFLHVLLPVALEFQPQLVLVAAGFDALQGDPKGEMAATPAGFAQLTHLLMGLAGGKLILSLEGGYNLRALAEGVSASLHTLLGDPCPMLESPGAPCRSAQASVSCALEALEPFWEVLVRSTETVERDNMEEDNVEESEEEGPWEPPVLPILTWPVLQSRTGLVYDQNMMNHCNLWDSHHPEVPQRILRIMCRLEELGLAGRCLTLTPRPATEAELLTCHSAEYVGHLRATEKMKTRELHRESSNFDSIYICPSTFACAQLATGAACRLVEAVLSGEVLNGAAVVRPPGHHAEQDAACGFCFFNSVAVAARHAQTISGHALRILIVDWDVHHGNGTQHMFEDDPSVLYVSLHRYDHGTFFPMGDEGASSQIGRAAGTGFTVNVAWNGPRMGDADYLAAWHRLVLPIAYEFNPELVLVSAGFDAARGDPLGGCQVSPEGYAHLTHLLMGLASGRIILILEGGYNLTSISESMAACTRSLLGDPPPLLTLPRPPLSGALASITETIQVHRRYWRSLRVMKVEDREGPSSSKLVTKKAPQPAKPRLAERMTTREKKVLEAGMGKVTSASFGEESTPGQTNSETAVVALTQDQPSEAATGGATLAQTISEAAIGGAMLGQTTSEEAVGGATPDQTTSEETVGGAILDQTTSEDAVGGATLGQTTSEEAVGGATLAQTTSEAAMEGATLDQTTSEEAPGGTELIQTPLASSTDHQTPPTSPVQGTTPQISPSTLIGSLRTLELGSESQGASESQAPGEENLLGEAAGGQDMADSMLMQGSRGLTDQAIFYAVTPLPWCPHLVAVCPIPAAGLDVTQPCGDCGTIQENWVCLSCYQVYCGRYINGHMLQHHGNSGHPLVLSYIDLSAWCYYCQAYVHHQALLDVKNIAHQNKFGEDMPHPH
Experimental: FIG. 5. HDAC Biochemical Assay Schema. 7-amino-4-methylcoumarin (7AMC) is linked by an amide bond to acetylated lysine in the context of an isoform-selective substate. Pictured here is a derived substrate for HDACs 1, 2, 3, and 6. HDAC hydrolyzes acetylated lysine, which is then a substrate for rapid trypsin digestion releasing 7AMC (shown in green) which is detected in real time by a fluorescence plate reader. Linear data captured after a pre-incubation phase (30 minutes) provides a kinetic assessment of deacetylase activity.
FIG. 6. […] Robust assay for HDACs 1, 2, 3, 5, 6, and 8 have been established.

Structure (SMILES): O=C(CCCCCCC(=O)N/N=C/c1ccc(N(c2ccccc2)c2ccccc2)cc1)NO [WT-161]
- Synergy with bortezomib on cell proliferation [1]: most pronounced synergy
- Inhibitory constant (Ki) for HDAC6, in words (HDAC6): Potent inhibition of HDAC6
- Selectivity among HDACs 1, 2, 3, 5, 6, 8, in words (HDAC6): Selective Inhibition of HDAC6
